Laboratory results from PubChem BioAssay (NCI).
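Test compounds were applied to cells in 96-well plates for 48 hours at 5 doses. At the TGI there is no net growth.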

What was measured:
Experiment in all cases: NCI anticancer screen, dose series, 48 h
NCI-H23 lung = test system: NCI-H23 lung
MOLT-4 leukemia = test system: MOLT-4 leukemia
HOP-62 NSCLC = test system: HOP-62 NSCLC
U251 CNS = test system: U251 CNS
UACC-257 melanoma = test system: UACC-257 melanoma
EKVX NSCLC = test system: EKVX NSCLC
SK-MEL-5 melanoma = test system: SK-MEL-5 melanoma
HCT-15 colon = test system: HCT-15 colon
DU-145 prostate = test system: DU-145 prostate
NCI-H522 lung = test system: NCI-H522 lung
RXF 393 renal = test system: RXF 393 renal
A549 NSCLC = test system: A549 NSCLC
SN12C renal = test system: SN12C renal
SK-MEL-28 melanoma = test system: SK-MEL-28 melanoma
SNB-19 CNS = test system: SNB-19 CNS
SW-620 colon = test system: SW-620 colon
T-47D breast = test system: T-47D breast
OVCAR-5 ovarian = test system: OVCAR-5 ovarian
CAKI-1 renal = test system: CAKI-1 renal
UO-31 renal = test system: UO-31 renal
HT29 colon = test system: HT29 colon
HCT-116 colon = test system: HCT-116 colon
TK-10 renal = test system: TK-10 renal
SNB-75 CNS = test system: SNB-75 CNS
SK-OV-3 ovarian = test system: SK-OV-3 ovarian
RPMI-8226 leukemia = test system: RPMI-8226 leukemia
M14 melanoma = test system: M14 melanoma
MALME-3M melanoma = test system: MALME-3M melanoma
OVCAR-8 ovarian = test system: OVCAR-8 ovarian
KM12 colon = test system: KM12 colon
MDA-N = test system: MDA-N
OVCAR-3 ovarian = test system: OVCAR-3 ovarian
LOX IMVI melanoma = test system: LOX IMVI melanoma
NCI/ADR-RES ovarian = test system: NCI/ADR-RES ovarian
A498 renal = test system: A498 renal
NCI-H460 lung = test system: NCI-H460 lung
COLO 205 colon = test system: COLO 205 colon
786-0 renal = test system: 786-0 renal
IGROV1 ovarian = test system: IGROV1 ovarian
HOP-92 NSCLC = test system: HOP-92 NSCLC
ACHN renal = test system: ACHN renal
NCI-H226 lung = test system: NCI-H226 lung
SF-539 CNS = test system: SF-539 CNS
SF-268 CNS = test system: SF-268 CNS
MDA-MB-231 breast = test system: MDA-MB-231 breast
SF-295 CNS = test system: SF-295 CNS
OVCAR-4 ovarian = test system: OVCAR-4 ovarian
MDA-MB-435 = test system: MDA-MB-435
BT-549 breast = test system: BT-549 breast
HCC-2998 colon = test system: HCC-2998 colon
HL-60(TB) leukemia = test system: HL-60(TB) leukemia
UACC-62 melanoma = test system: UACC-62 melanoma
SK-MEL-2 melanoma = test system: SK-MEL-2 melanoma
PC-3 prostate = test system: PC-3 prostate
CCRF-CEM leukemia = test system: CCRF-CEM leukemia
K-562 leukemia = test system: K-562 leukemia
MCF7 breast = test system: MCF7 breast
SR leukemia = test system: SR leukemia

`Cc1cnc(Cl)nc1C(C#N)c1nc2ccccc2s1` (stereo not drawn) was tested, and the TGI (NCI-H23 lung) was 40.8 µM, the TGI (MOLT-4 leukemia) was greater than 100 µM and the TGI (HOP-62 NSCLC) was 54.6 µM. It also gave a TGI (U251 CNS) greater than 100 µM, a TGI (UACC-257 melanoma) greater than 100 µM and a TGI (EKVX NSCLC) greater than 100 µM. It also gave a TGI (SK-MEL-5 melanoma) of 20.1 µM, a TGI (HCT-15 colon) greater than 100 µM and a TGI (DU-145 prostate) greater than 100 µM. The TGI (NCI-H522 lung) was 16.4 µM, the TGI (RXF 393 renal) was 48.1 µM and the TGI (A549 NSCLC) was greater than 100 µM. It also gave a TGI (SN12C renal) of 63.2 µM, a TGI (SK-MEL-28 melanoma) greater than 100 µM and a TGI (SNB-19 CNS) greater than 100 µM. For the same molecule, the TGI (SW-620 colon) was greater than 100 µM, the TGI (T-47D breast) was greater than 100 µM and the TGI (OVCAR-5 ovarian) was 80.4 µM. It also gave a TGI (CAKI-1 renal) of 73.4 µM, a TGI (UO-31 renal) greater than 100 µM and a TGI (HT29 colon) greater than 100 µM. For the same molecule, the TGI (HCT-116 colon) was 38.2 µM, the TGI (TK-10 renal) was 78.4 µM and the TGI (SNB-75 CNS) was 53.5 µM. The TGI (SK-OV-3 ovarian) was 87.2 µM, the TGI (RPMI-8226 leukemia) was greater than 100 µM and the TGI (M14 melanoma) was greater than 100 µM. It also gave a TGI (MALME-3M melanoma) of 46 µM, a TGI (OVCAR-8 ovarian) greater than 100 µM and a TGI (KM12 colon) greater than 100 µM. For the same molecule, the TGI (MDA-N) was 68.1 µM, the TGI (OVCAR-3 ovarian) was greater than 100 µM and the TGI (LOX IMVI melanoma) was 50.7 µM. It also gave a TGI (NCI/ADR-RES ovarian) of 89.2 µM, a TGI (A498 renal) of 84.2 µM and a TGI (NCI-H460 lung) greater than 100 µM. The TGI (COLO 205 colon) was 28.5 µM, the TGI (786-0 renal) was 38.3 µM and the TGI (IGROV1 ovarian) was greater than 100 µM. It also gave a TGI (HOP-92 NSCLC) of 35.4 µM, a TGI (ACHN renal) of 42.2 µM and a TGI (NCI-H226 lung) of 84.5 µM. The TGI (SF-539 CNS) was 63.8 µM, the TGI (SF-268 CNS) was 87.8 µM and the TGI (MDA-MB-231 breast) was greater than 100 µM. The TGI (SF-295 CNS) was 62.2 µM, the TGI (OVCAR-4 ovarian) was greater than 100 µM and the TGI (MDA-MB-435) was greater than 100 µM. The TGI (BT-549 breast) was 51.2 µM.
`COCCCN(Cc1cc(OC)c(OC)c(OC)c1)C(=S)Nc1cccc(Cl)c1` showed a TGI (HCC-2998 colon) greater than 100 µM, a TGI (MOLT-4 leukemia) of 33.1 µM and a TGI (HOP-62 NSCLC) greater than 100 µM. It also gave a TGI (U251 CNS) greater than 100 µM, a TGI (HL-60(TB) leukemia) of 45.4 µM and a TGI (UACC-257 melanoma) of 48.5 µM. For the same molecule, the TGI (EKVX NSCLC) was 52.4 µM, the TGI (SK-MEL-5 melanoma) was 30 µM and the TGI (HCT-15 colon) was 61.1 µM. It also gave a TGI (DU-145 prostate) greater than 100 µM, a TGI (RXF 393 renal) of 96.4 µM and a TGI (A549 NSCLC) greater than 100 µM. For the same molecule, the TGI (SN12C renal) was 92.5 µM, the TGI (SK-MEL-28 melanoma) was 85.1 µM and the TGI (SNB-19 CNS) was greater than 100 µM. For the same molecule, the TGI (SW-620 colon) was greater than 100 µM, the TGI (T-47D breast) was 49.2 µM and the TGI (OVCAR-5 ovarian) was 75.1 µM. For the same molecule, the TGI (CAKI-1 renal) was greater than 100 µM, the TGI (UO-31 renal) was 90.5 µM and the TGI (HT29 colon) was 50.2 µM. It also gave a TGI (UACC-62 melanoma) of 44.7 µM, a TGI (HCT-116 colon) of 45.1 µM and a TGI (SK-MEL-2 melanoma) of 52.1 µM. For the same molecule, the TGI (TK-10 renal) was greater than 100 µM, the TGI (SNB-75 CNS) was 70.7 µM and the TGI (SK-OV-3 ovarian) was greater than 100 µM. For the same molecule, the TGI (RPMI-8226 leukemia) was 37.4 µM, the TGI (M14 melanoma) was 51.8 µM and the TGI (OVCAR-8 ovarian) was 72.7 µM. It also gave a TGI (KM12 colon) of 67.6 µM, a TGI (MDA-N) of 45.7 µM and a TGI (PC-3 prostate) of 68.2 µM. It also gave a TGI (CCRF-CEM leukemia) of 55.7 µM, a TGI (OVCAR-3 ovarian) greater than 100 µM and a TGI (LOX IMVI melanoma) of 51.1 µM. It also gave a TGI (NCI/ADR-RES ovarian) of 63.1 µM, a TGI (A498 renal) greater than 100 µM and a TGI (K-562 leukemia) of 69.2 µM. For the same molecule, the TGI (MCF7 breast) was 62.1 µM, the TGI (NCI-H460 lung) was greater than 100 µM and the TGI (COLO 205 colon) was greater than 100 µM. The TGI (786-0 renal) was 85.4 µM, the TGI (IGROV1 ovarian) was greater than 100 µM and the TGI (HOP-92 NSCLC) was 53.7 µM. It also gave a TGI (ACHN renal) greater than 100 µM, a TGI (SF-539 CNS) greater than 100 µM and a TGI (SF-268 CNS) of 63.6 µM. For the same molecule, the TGI (MDA-MB-231 breast) was 83.5 µM, the TGI (SF-295 CNS) was greater than 100 µM and the TGI (OVCAR-4 ovarian) was 91.4 µM. For the same molecule, the TGI (MDA-MB-435) was 48.4 µM and the TGI (BT-549 breast) was 64.9 µM.
In the case of `CC1=C(C)C(=O)C2=C(OCCO2)C1=O`, the TGI (HCC-2998 colon) was 35 µM, the TGI (NCI-H23 lung) was 48 µM and the TGI (MOLT-4 leukemia) was 7.2 µM. For the same molecule, the TGI (HOP-62 NSCLC) was 33.1 µM, the TGI (U251 CNS) was 31.5 µM and the TGI (HL-60(TB) leukemia) was 15 µM. The TGI (UACC-257 melanoma) was 28.4 µM, the TGI (EKVX NSCLC) was 28.9 µM and the TGI (SK-MEL-5 melanoma) was 30.1 µM. It also gave a TGI (HCT-15 colon) of 35.1 µM, a TGI (DU-145 prostate) of 34 µM and a TGI (A549 NSCLC) of 43.1 µM. For the same molecule, the TGI (SN12C renal) was 34.8 µM, the TGI (SK-MEL-28 melanoma) was 30.2 µM and the TGI (SNB-19 CNS) was 32.7 µM. For the same molecule, the TGI (SW-620 colon) was 45.3 µM, the TGI (T-47D breast) was 5.55 µM and the TGI (OVCAR-5 ovarian) was 36.4 µM. It also gave a TGI (CAKI-1 renal) of 32.7 µM, a TGI (SR leukemia) of 20.3 µM and a TGI (UO-31 renal) of 24 µM. For the same molecule, the TGI (HT29 colon) was 44.3 µM, the TGI (HCT-116 colon) was 13.5 µM and the TGI (TK-10 renal) was 32.6 µM. The TGI (SK-OV-3 ovarian) was 34.6 µM, the TGI (RPMI-8226 leukemia) was 7.08 µM and the TGI (M14 melanoma) was 35.3 µM. It also gave a TGI (MALME-3M melanoma) of 29.7 µM, a TGI (OVCAR-8 ovarian) of 9.34 µM and a TGI (KM12 colon) of 34.2 µM. For the same molecule, the TGI (MDA-N) was 26.7 µM, the TGI (PC-3 prostate) was 52.9 µM and the TGI (CCRF-CEM leukemia) was 8.84 µM. It also gave a TGI (OVCAR-3 ovarian) of 32.3 µM, a TGI (LOX IMVI melanoma) of 32.9 µM and a TGI (NCI/ADR-RES ovarian) of 21.1 µM. The TGI (A498 renal) was 38.7 µM, the TGI (MCF7 breast) was 63.5 µM and the TGI (NCI-H460 lung) was 40.2 µM. It also gave a TGI (COLO 205 colon) of 33.1 µM, a TGI (786-0 renal) of 44.6 µM and a TGI (IGROV1 ovarian) of 5.66 µM. The TGI (HOP-92 NSCLC) was 6.96 µM, the TGI (ACHN renal) was 55.1 µM and the TGI (NCI-H226 lung) was 45 µM. For the same molecule, the TGI (SF-539 CNS) was 35 µM, the TGI (SF-268 CNS) was 69.7 µM and the TGI (MDA-MB-231 breast) was 11.2 µM. For the same molecule, the TGI (SF-295 CNS) was 33 µM, the TGI (MDA-MB-435) was 7.76 µM and the TGI (BT-549 breast) was 37.7 µM.
